Active and inactive are the calls of the source. No cut-off for these calls is given here.
What was measured:
Mus musculus [1] = assay: Downregulation of IL-1beta expression in colon of C57BL/6 mouse model of DSS-induced ulcerative colitis at 10 to 20 mg/kg, ig administered for 7 days by Western blot analysis; format: functional, organism-based; conditions: dose 10-20 mg/kg, time 7.0 day
BMDM [2] = assay: Effect on pro-caspase1 expression in LPS-stimulated mouse bone marrow-derived macrophages at 0.5 to 2 uM preincubated for 30 mins followed by nigericin addition and measured after 30 mins by Western blot analysis; format: functional, tissue-based; conditions: dose 0.5-2 µM, time 60.0 min
BMDM [3] = assay: Effect on pro-IL1beta expression in LPS-stimulated mouse bone marrow-derived macrophages at 0.5 to 2 uM preincubated for 30 mins followed by nigericin addition and measured after 30 mins by Western blot analysis; format: functional, tissue-based; conditions: dose 0.5-2 µM, time 60.0 min
[4] = Hepatic clearance in human liver microsomes preincubated for 5 mins followed by NADPH addition and measured after 5 to 60 mins by LC-MS/MS analysis; format: ADME, Microsome; conditions: time 5-60 min
[5] = molecular target: NACHT, LRR and PYD domains-containing protein 3 (Mus musculus) (UniProt Q8R4B8); assay: Inhibition of NLRP3 inflammasome activation in LPS-stimulated mouse bone marrow-derived macrophages assessed as reduction in activated caspase1 p20 in supernatant at 2 uM preincubated for 30 mins followed by nigericin addition and measured after 0.5 hrs by Western blot analysis; format: tissue-based; conditions: Macrophage, time 60.0 min
Chain of NACHT, LRR and PYD domains-containing protein 3 (Mus musculus) (Q8R4B8 whole entry, the tested form may be a part): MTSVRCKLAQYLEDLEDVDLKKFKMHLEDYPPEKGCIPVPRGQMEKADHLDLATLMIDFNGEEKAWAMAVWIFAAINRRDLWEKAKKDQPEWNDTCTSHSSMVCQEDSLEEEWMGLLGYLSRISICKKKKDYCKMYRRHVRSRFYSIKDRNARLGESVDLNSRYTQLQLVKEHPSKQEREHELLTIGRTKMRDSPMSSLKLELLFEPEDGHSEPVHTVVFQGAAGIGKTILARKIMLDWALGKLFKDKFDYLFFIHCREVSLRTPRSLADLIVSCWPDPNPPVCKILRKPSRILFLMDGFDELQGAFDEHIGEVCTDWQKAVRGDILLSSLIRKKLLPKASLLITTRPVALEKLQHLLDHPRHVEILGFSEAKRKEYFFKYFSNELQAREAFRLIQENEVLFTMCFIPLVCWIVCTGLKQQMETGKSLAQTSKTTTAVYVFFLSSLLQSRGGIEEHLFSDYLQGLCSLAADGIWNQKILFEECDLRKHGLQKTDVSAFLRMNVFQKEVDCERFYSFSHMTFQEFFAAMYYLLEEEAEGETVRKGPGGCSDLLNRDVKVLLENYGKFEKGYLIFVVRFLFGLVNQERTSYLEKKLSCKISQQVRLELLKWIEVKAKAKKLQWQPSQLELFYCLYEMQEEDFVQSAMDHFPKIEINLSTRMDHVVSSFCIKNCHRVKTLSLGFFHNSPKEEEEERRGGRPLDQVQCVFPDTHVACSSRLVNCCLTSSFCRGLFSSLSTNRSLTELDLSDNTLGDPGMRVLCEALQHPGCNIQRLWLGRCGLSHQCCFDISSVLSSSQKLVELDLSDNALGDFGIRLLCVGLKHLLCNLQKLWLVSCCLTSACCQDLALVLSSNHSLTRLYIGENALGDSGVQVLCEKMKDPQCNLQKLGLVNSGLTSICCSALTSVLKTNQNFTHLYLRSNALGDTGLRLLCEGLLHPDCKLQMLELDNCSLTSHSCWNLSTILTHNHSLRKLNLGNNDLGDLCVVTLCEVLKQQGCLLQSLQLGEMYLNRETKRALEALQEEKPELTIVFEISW

[6] = molecular target: NACHT, LRR and PYD domains-containing protein 3 (Homo sapiens, UniProt Q96P20); assay: Inhibition of recombinant human NLRP3 preincubated for 15 mins followed by ATP addition by ADP-Glo kinase assay
Chain of NACHT, LRR and PYD domains-containing protein 3 (Q96P20 whole entry, the tested form may be a part): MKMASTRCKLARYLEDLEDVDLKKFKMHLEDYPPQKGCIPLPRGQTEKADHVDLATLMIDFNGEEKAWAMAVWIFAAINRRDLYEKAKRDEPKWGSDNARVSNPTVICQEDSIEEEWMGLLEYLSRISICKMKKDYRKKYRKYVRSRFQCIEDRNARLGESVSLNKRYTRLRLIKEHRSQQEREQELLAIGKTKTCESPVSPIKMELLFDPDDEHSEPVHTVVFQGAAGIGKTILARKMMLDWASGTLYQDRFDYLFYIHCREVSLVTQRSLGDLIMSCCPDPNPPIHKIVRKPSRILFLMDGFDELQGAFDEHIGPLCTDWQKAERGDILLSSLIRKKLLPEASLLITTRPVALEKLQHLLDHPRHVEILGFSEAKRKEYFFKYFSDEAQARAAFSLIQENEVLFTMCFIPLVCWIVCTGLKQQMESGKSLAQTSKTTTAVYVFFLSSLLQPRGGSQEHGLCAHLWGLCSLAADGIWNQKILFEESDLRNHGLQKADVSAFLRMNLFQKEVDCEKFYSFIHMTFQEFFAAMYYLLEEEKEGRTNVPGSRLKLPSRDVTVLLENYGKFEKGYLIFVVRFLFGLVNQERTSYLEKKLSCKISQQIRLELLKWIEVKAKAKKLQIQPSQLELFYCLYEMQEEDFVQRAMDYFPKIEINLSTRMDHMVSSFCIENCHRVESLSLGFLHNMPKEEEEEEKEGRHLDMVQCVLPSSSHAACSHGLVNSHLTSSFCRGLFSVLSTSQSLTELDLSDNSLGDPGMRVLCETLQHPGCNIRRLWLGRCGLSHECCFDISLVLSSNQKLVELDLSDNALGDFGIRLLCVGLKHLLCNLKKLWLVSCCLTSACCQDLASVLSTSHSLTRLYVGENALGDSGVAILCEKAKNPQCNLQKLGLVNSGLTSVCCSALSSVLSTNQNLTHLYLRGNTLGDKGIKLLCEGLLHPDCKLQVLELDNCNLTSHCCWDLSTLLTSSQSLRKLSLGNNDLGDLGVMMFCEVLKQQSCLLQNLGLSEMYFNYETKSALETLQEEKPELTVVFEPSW

[7] = molecular target: NACHT, LRR and PYD domains-containing protein 3 (Mus musculus) (UniProt Q8R4B8); assay: Inhibition of NLRP3 inflammasome activation in LPS-stimulated mouse bone marrow-derived macrophages assessed as reduction in ILbeta secretion at 2 uM preincubated for 30 mins followed by nigericin addition and measured after 0.5 hrs by ELISA; format: tissue-based; conditions: Macrophage, time 60.0 min
BMDM [8] = assay: Effect on ASC expression in LPS-stimulated mouse bone marrow-derived macrophages at 0.5 to 2 uM preincubated for 30 mins followed by nigericin addition and measured after 30 mins by Western blot analysis; format: functional, tissue-based; conditions: dose 0.5-2 µM, time 60.0 min
[9] = Toxicity in C57BL/6 mouse assessed as overactivity at 20 to 40 mg/kg, ig administered for 28 days; format: organism-based; conditions: in vivo, po, 672 h, dose 20-40 mg/kg, time 28 day
Mus musculus [10] = assay: Downregulation of NLRP3 expression in colon of C57BL/6 mouse model of DSS-induced ulcerative colitis at 10 to 20 mg/kg, ig administered for 7 days by Western blot analysis; format: functional, organism-based; conditions: dose 10-20 mg/kg, time 7.0 day
[11] = molecular target: NLR family CARD domain-containing protein 4 (Mus musculus) (UniProt Q3UP24); assay: Inhibition of NLRC4 inflammasome activation in LPS-stimulated mouse bone marrow-derived macrophages assessed as reduction in IL-1beta secretion at 2 uM preincubated for 30 mins followed by Salmonella addition and measured after 4 hrs by ELISA; format: tissue-based; conditions: Macrophage, time 4.5 hrs
Chain of NLR family CARD domain-containing protein 4 (Mus musculus) (Q3UP24 whole entry, the tested form may be a part): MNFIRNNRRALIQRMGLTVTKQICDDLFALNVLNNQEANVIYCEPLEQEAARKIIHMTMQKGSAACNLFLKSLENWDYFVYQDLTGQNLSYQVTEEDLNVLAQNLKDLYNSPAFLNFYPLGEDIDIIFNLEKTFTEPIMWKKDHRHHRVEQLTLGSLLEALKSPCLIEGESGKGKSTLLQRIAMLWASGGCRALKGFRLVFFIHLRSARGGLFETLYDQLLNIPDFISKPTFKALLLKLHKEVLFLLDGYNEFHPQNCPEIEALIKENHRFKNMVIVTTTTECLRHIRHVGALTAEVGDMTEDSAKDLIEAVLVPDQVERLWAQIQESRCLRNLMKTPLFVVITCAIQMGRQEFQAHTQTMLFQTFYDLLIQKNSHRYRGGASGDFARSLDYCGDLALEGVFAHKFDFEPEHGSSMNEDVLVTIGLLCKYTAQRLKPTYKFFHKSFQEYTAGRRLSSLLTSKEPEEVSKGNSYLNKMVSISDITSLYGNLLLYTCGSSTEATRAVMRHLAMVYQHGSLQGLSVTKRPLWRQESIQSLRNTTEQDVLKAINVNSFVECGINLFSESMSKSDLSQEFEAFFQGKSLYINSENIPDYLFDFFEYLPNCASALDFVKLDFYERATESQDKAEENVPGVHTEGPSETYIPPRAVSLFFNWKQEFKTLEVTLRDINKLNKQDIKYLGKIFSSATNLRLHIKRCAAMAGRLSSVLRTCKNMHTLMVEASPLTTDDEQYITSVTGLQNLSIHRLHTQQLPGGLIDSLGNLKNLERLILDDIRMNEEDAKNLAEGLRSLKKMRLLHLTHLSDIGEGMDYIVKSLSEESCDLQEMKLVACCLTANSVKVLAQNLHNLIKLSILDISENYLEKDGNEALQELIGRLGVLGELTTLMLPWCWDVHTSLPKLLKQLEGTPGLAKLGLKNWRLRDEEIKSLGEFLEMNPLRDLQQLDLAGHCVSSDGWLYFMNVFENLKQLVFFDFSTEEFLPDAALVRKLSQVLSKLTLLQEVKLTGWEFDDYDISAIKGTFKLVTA

[12] = Toxicity in C57BL/6 mouse assessed as weight loss at 20 to 40 mg/kg, ig administered for 28 days; format: organism-based; conditions: in vivo, po, 672 h, dose 20-40 mg/kg, time 28 day
[13] = molecular target: NACHT, LRR and PYD domains-containing protein 3 (Mus musculus) (UniProt Q8R4B8); assay: Inhibition of NLRP3 inflammasome activation in LPS-stimulated mouse bone marrow-derived macrophages assessed as reduction in pro caspase1 in cell lysate at 2 uM preincubated for 30 mins followed by MSU addition and measured after 0.5 hrs by Western blot analysis; format: subcellular; conditions: Macrophage, time 60.0 min
Mus musculus [14] = assay: Downregulation of COX2 expression in colon of C57BL/6 mouse model of DSS-induced ulcerative colitis at 10 to 20 mg/kg, ig administered for 7 days by Western blot analysis; format: functional, organism-based; conditions: dose 10-20 mg/kg, time 7.0 day
BMDM [15] = assay: Effect on NEK7 expression in LPS-stimulated mouse bone marrow-derived macrophages at 0.5 to 2 uM preincubated for 30 mins followed by nigericin addition and measured after 30 mins by Western blot analysis; format: functional, tissue-based; conditions: dose 0.5-2 µM, time 60.0 min
[16] = Half life in mouse liver microsomes preincubated for 5 mins followed by NADPH addition and measured after 5 to 60 mins by LC-MS/MS analysis; format: ADME, Microsome; conditions: time 5-60 min
[17] = Toxicity in C57BL/6 mouse assessed as effect on spleen at 20 to 40 mg/kg, ig administered for 28 days; format: organism-based; conditions: in vivo, po, 672 h, dose 20-40 mg/kg, time 28 day
[18] = molecular target: NACHT, LRR and PYD domains-containing protein 3 (Mus musculus) (UniProt Q8R4B8); assay: Inhibition of NLRP3 inflammasome activation in LPS-stimulated mouse bone marrow-derived macrophages assessed as reduction in ILbeta secretion at 2 uM preincubated for 30 mins followed by ATP addition and measured after 0.5 hrs by ELISA; format: tissue-based; conditions: Macrophage, time 60.0 min
[19] = molecular target: NACHT, LRR and PYD domains-containing protein 3 (Mus musculus) (UniProt Q8R4B8); assay: Inhibition of NLRP3 inflammasome activation in LPS-stimulated mouse bone marrow-derived macrophages assessed as reduction in cleaved IL-1beta secretion preincubated for 30 mins followed by nigericin addition and measured after 30 mins by Western blot analysis; format: tissue-based; conditions: Macrophage, time 60.0 min
[20] = molecular target: NACHT, LRR and PYD domains-containing protein 3 (Mus musculus) (UniProt Q8R4B8); assay: Inhibition of NLRP3 inflammasome activation in LPS-stimulated mouse bone marrow-derived macrophages assessed as reduction in caspase1 secretion at 1 to 4 uM preincubated for 30 mins followed by nigericin addition and measured after 0.5 hrs by Western blot analysis; format: tissue-based; conditions: Macrophage, dose 1-4 µM
Mus musculus [21] = assay: In vivo inhibition of NLRP3 inflammasome activation in C57BL/6 mouse assessed as reduction in MPO activity at 10 to 20 mg/kg, ig administered for 7 days by ELISA; format: functional, organism-based; conditions: dose 10-20 mg/kg, time 7.0 day
[22] = molecular target: T1, Interferon-inducible protein AIM2 (Mus musculus) (UniProt Q91VJ1); assay: Inhibition of AIM2 inflammasome activation in LPS-stimulated mouse bone marrow-derived macrophages assessed as reduction in IL-1beta secretion at 2 uM preincubated for 30 mins followed by poly-(dA:dT) addition and measured after 4 hrs by ELISA; format: tissue-based; conditions: Macrophage, time 4.5 hrs
T1 sequence (whole entry): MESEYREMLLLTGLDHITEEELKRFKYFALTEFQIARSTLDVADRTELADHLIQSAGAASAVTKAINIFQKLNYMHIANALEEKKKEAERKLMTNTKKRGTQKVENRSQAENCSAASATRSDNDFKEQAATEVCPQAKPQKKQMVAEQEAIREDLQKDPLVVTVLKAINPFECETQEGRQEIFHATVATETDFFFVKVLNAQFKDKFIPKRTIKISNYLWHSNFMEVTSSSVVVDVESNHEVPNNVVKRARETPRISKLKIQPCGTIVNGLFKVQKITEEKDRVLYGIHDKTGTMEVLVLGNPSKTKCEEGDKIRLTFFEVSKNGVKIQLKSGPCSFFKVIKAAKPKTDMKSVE

Mus musculus [23] = assay: Protection against DSS-induced acute ulcerative colitis in C57BL/6 mouse assessed as reduction in decrease in goblet cells at 10 to 20 mg/kg, ig administered for 7 days by Hematoxylin and eosin staining based optical microscopy; format: functional, organism-based; conditions: dose 10-20 mg/kg, time 7.0 day
BMDM [24] = assay: Effect on NLRP3 expression in LPS-stimulated mouse bone marrow-derived macrophages at 0.5 to 2 uM preincubated for 30 mins followed by nigericin addition and measured after 30 mins by Western blot analysis; format: functional, tissue-based; conditions: dose 0.5-2 µM, time 60.0 min
Mus musculus [25] = assay: Downregulation of phosphorylated p65 expression in colon of C57BL/6 mouse model of DSS-induced ulcerative colitis at 10 to 20 mg/kg, ig administered for 7 days by Western blot analysis; format: functional, organism-based; conditions: dose 10-20 mg/kg, time 7.0 day
[26] = molecular target: NACHT, LRR and PYD domains-containing protein 3 (Mus musculus) (UniProt Q8R4B8); assay: Inhibition of NLRP3 inflammasome activation in LPS-stimulated mouse bone marrow-derived macrophages assessed as reduction in cell pyrolysis at 5 to 25 uM preincubated for 30 mins followed by nigericin addition and measured after 30 mins by Western blot analysis; format: tissue-based; conditions: Macrophage, dose 5-25 µM, time 60.0 min

CLhep predicted [4]: 11 mL/min/kg
inhibition [5]: Active
inhibition [6]: Dose-Dependent Effect
inhibition [7]: Active
inhibition [11]: inactive
inhibition [13]: Active
half-life [16]: 43.3 min
inhibition [18]: Active
inhibition [19]: Dose-Dependent Effect
inhibition [20]: Active
inhibition [22]: inactive
inhibition [26]: Active
Compound: COc1cc(/C=C/c2ccc(NC(=O)C3CC3)cc2)c(/C=C/[N+](=O)[O-])c(OC)c1
Activity (Mus musculus [1]): Active
Activity (BMDM [2]): inactive
Activity (BMDM [3]): inactive
Activity (BMDM [8]): inactive
Activity [9]: Non-Toxic
Activity (Mus musculus [10]): Active
Activity [12]: Non-Toxic
Activity (Mus musculus [14]): Active
Activity (BMDM [15]): inactive
Activity [17]: Non-Toxic
inhibition (Mus musculus [21]): Active
Activity (Mus musculus [23]): Active
Activity (BMDM [24]): inactive
Activity (Mus musculus [25]): Active

Reference: ChEMBL document CHEMBL4831528, “Discovery of Novel Pterostilbene-Based Derivatives as Potent and Orally Active NLRP3 Inflammasome Inhibitors with Inflammatory Activity for Colitis” (J Med Chem, 2021)
